The values that follow come from patent EP4644391A1, “NOVEL PHENYLQUINOLONE COMPOUND HAVING ANTIBACTERIAL AND ANTICANCER FUNCTIONS, AND PREPARATION THEREOF” (Alphamol Science Ltd (Shanghai), priority 2022, dated 2024).

Values after ≈ are worked out from the molar mass of the structure shown. Where two headings read alike, the source gives them in different places.

One data set concerns E. feacium ATCC 700221. The data set can be described thus: In vitro antibacterial activity assay (MIC, broth dilution). Particulars: Table 1; 37°C, 16 hours; read-out: G+ bacteria MIC E. feacium ATCC 700221. The format is cell-based. For orientation: Dilution methods test growth across graded concentrations, often in twofold steps.
The test system of a further data set is S. aureus ATCC 43300. The data set is described as above. The format is cell-based. Particulars: Staphylococcus aureus, ATCC43300.
In the next data set the test system is A. baumannii ATCC 17978. Described as above. The data set is classed as cell-based. Particulars: Acinetobacter baumannii, ATCC17978; Table 2; 37°C, 16 hours; read-out: G- bacteria MIC A. baumannii ATCC 17978.
The subject of the next data set is P.aeruginosa ATCC 27853. Described as above. The format is cell-based. Particulars: Pseudomonas aeruginosa, ATCC27853; Table 2; 37°C, 16 hours; read-out: G- bacteria MIC P.aeruginosa ATCC 27853.
For data set [1], the system named is Staphylococcus aureus ATCC43300. Briefly: Systemic blood infection animal model. The data set is classed as in vivo, mice. To be noted: for number of colonies of organs (liver and kidney), antibacterial effect: 4 mg/kg, oral gavage 3 times a day for 7 days (positive drug given as ciprofloxacin hydrochloride). The procedure:
Mice were administered by oral gavage with the drug solvent for the model group and the blank group. • (5) 8 h after the last administration, mice were euthanized by cervical dislocation, disinfected with 75% alcohol, and then necropsied under sterile conditions. The kidneys and livers were harvested, observed and photographed, and the weight was recorded. • (6) The kidneys and livers were placed in a sterile glass grinder and sterile PBS in a volume ten times the weight of the organs was added and grinded. The grinding solutions were taken out, 10-fold serially diluted, smeared to a TSA solid culture medium, and incubated at 37°C for 16 hours, then the colonies were counted. The number of colonies of the organs was calculated to evaluate the therapeutic effect.

The test system is the same in data set [2]. The data set can be described thus: Resistance test of bacteria against compounds (serial passage, 21 days). The format is cell-based. To be noted: for MIC: Staphylococcus aureus, ATCC43300, 504 h, read-out: MIC at the end of the experiment. The procedure:
This example provides a resistance test of bacteria against compounds, and the specific experimental method is as follows. • 1. […] It was ensured that among the 6 final concentrations of the drug diluted into the wells, some were higher than the original MIC of the bacteria and some were lower than the original MIC of the bacteria. • 2. Preparation of bacterial liquid: 10 mL of culture medium was taken and added to a sterilized plate using a pipette, then 100 µL of the above-mentioned passaged bacterial liquid was added, and mixed well for later use. • 3. The above-mentioned diluted bacterial liquid was taken and added to a 96-well plate using a pipette, 180 µL per well, 3 wells per group, 6 groups in total. 20 µL of drug solution was added to each well (note: it is necessary to replace the pipette tip each time the drug is added), so that the final drug concentrations were 2 µg/mL, 1 µg/mL, 0.8 µg/mL, 0.4 µg/mL, 0.2 µg/mL, 0.1 µg/mL, respectively. The well with 200 µL of diluted bacterial liquid was used as the positive control well, and the well with 200 µL of culture medium was used as the negative control well.
The test object was Staphylococcus aureus (S. aureus). The specific results are shown in FIG1.

Data set [3] concerns methicillin-resistant Staphylococcus aureus. The format is in vivo, Kunming mice. To be noted: for reduction of necrosis area compared with the control group: 4 consecutive days, measured on 5th day. The procedure: Kunming mice (20±2 g) were anesthetized with chloral hydrate and shaved, and then 50 µL of 4×10^7 CFU/mL of methicillin-resistant Staphylococcus aureus was subcutaneously injected. One day later, 100 µL of 0.02, 2 and 200 mg/kg of Example 29 were subcutaneously injected respectively, and 100 µL of normal saline was injected for the control group. The drug was administered for consecutive 4 days, and mice were euthanized on the 5th day, and the area of abscess was measured.

[4] abbreviates: Table 1, 37°C, 16 hours, read-out: G+ bacteria MIC S. aureus ATCC 43300.

As usually defined, the MIC is the lowest concentration found to suppress growth.

Turning to `O=C(O)c1cn(C2CC2)c2cc(N3CCNCC3)c(F)cc2c1=O` [Ciprofloxacin], the MIC in the data set on E. feacium ATCC 700221 was > 8 µg/mL; in the data set on S. aureus ATCC 43300 (setting [4]), 0.1 to 1 µg/mL (≈ 0.302 to 3.02 µM); in the data set with A. baumannii ATCC 17978, 0.1 to 1 µg/mL (≈ 0.302 to 3.02 µM); in the data set on P.aeruginosa ATCC 27853 it was 0.1 to 1 µg/mL (≈ 0.302 to 3.02 µM); in data set [2] it was 128 µg/mL (≈ 386 µM). Further, the “number of colonies of organs (liver and kidney), antibacterial effect” value in data set [1] is listed as “not apparent”. Further, the “resistance of bacteria in the subsequent culture” value in data set [2] (Staphylococcus aureus ATCC43300, serial passage) is reported as “increased rapidly”.

Turning to `O=C(O)c1cn(C2CC2)c2c(Cl)c(-c3ccc(S(=O)(=O)NCCCC(F)(F)F)nc3)c(F)cc2c1=O` [Example 29, 8-chloro-1-cyclopropyl-6-fluoro-4-oxo-7-(6-(N-(4,4,4-trifluorobutyl)sulfamoyl)pyridin-3-yl)-1,4-dihydroquinolin-3-carboxylic acid], the MIC with E. feacium ATCC 700221 is 1 to 8 µg/mL (≈ 1.83 to 14.6 µM); in the data set with S. aureus ATCC 43300 (setting [4]) it was ≤ 0.1 µg/mL; in the data set on S. aureus ATCC 43300 (Table 3, read-out: S. aureus ATCC 43300 MIC), ≤ 1 µg/mL; with A. baumannii ATCC 17978, ≤ 0.1 µg/mL; in the data set with P.aeruginosa ATCC 27853, ≤ 0.1 µg/mL; in data set [2], 2 µg/mL (≈ 3.65 µM). The entries for the “reduction of necrosis area compared with the control group” value in data set [3] (0.02 mg/kg subcutaneous) and in data set [3] (2 mg/kg subcutaneous) were 78.09% and 81.21%, respectively. Further, in data set [3] (concentrations 4 µg/mL and 400 µg/mL (corresponding to 0.02 mg/kg, 200 mg/kg)), the antibacterial effect result is reported as “good antibacterial effect”. In data set [3] (mouse, in vivo, sc, 200 mg/kg), the “observation at the subcutaneous administration site” value is given as “certain bleeding symptom in body surface appeared”. Moreover, the “number of colonies of organs (liver and kidney) versus control group” value in data set [1] (1 mg/kg, oral gavage 3 times a day for 7 days) was “significant statistical difference from the control group”. Further, the “number of colonies of organs (liver and kidney), antibacterial effect” value in data set [1] is “huge difference”. For the same compound, in data set [1] (oral gavage 3 times a day for 7 days, Figure 4), the “antibacterial effect in the liver and kidney (number of colonies) compared with ciprofloxacin” value is on record as “very significant antibacterial effect”. Besides, in data set [2] (Staphylococcus aureus ATCC43300, start of resistance test), the “initial MIC compared with ciprofloxacin and vancomycin” value is on record as “superior”.
